From publication PMC11173382, “In Vitro Investigations into the Potential Drug Interactions of Pseudoginsenoside DQ Mediated by Cytochrome P450 and Human Drug Transporters” (Molecules, 2024)

Target: T1, hOAT3 (Homo sapiens, UniProt Q8TCC7)
T1 sequence (Q8TCC7 1-542): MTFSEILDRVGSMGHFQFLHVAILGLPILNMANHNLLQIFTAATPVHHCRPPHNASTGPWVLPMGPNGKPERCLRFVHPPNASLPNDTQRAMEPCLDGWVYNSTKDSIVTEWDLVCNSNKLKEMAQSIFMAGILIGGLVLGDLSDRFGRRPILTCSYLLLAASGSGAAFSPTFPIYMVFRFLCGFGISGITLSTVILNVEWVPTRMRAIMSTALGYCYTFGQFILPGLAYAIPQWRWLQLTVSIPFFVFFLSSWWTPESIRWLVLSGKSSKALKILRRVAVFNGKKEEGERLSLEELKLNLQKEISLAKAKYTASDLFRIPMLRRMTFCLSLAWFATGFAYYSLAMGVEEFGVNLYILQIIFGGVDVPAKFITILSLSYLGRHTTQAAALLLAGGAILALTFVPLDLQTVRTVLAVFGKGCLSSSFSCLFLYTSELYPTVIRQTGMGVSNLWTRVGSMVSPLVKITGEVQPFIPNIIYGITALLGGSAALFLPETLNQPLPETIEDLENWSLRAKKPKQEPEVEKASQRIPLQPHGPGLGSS
Assay: Substrates uptake assay, S2-OAT3 cells (3H-ES)
Format: in vitro ADME
Settings: for Transport activity of OAT3 (main text: percentage inhibition): negative control = 100%
Text: Drug transporters mediate the cellular uptake and efflux of their substrates. Therefore, cell lines overexpressing a drug transporter can be utilized to investigate inhibitors of the transporter by assessing changes in substrate uptake. For each drug transporter, we selected a well-characterized inhibitor as the positive control. Radiolabeled substrates were used to indicate the decrease in transport efficiency when the drug transporters were inhibited by PDQ or the control inhibitors.
The concentrations of the control drugs and the substrates were stated in the assay details. Working solutions of the control inhibitors, the radiolabeled substrates, and each dose of PDQ were prepared at 200 times (200×) more concentrated solutions with DMSO for further dilution.
Transporter-overexpressed cell lines. Human organic anion transporter-overexpressed cell lines MDCKII-OAT1 and S2-OAT3, human organic anion transport polypeptide-overexpressed cell lines HEK293A-OATP1B1 and HEK293A-OATP1B3, human organic cation transporter 2-overexpressed cell line S2-OCT2, and human multi-drug resistance protein MDR1 (or P-gp)-overexpressed cell line MDCKII-MDR1 were gifts from Japan Fuji Biomedical Co., Ltd. (Fuji, Shizuoka Prefecture, Japan). Breast cancer resistance protein-overexpressed vesicles (sf9-BCRP vesicle) were purchased from GenoMembrane Co., Ltd. (Yokohama, Kanagawa, Japan).
Substrates uptake assay. In this assay, we studied the inhibition of PDQ against transporters OAT1, OAT3, OCT2, OATP1B1 and OATP1B3 with MDCKII-OAT1, S2-OAT3, S2-OCT2, HEK293A-OATP1B1and HEK293A-OATP1B3 cells, respectively. The radiolabeled substrates for OAT1, OAT3, OATP1B1, OATP1B3 and OCT2 were […], respectively (Table 5). Probenecid ([…]) was the positive control inhibitor of OAT1 and OAT3, while rifampicin ([…]) served as the control drug of OATP1B1 and OATP1B3. For OCT2, we used […] cimetidine to compare with the inhibitory effect of PDQ. Two times (2×) more concentrated working solutions of the drugs and the substrate were prepared with Dulbecco’s phosphate-buffered saline (DPBS, Gibco, Grand Island, NY, USA.). Then, an equal volume of 2× drug solution and 2× radiolabeled substrate solution were mixed as the working mix. All reagents were pre-warmed to 37 °C.
The cells were digested with 0.05% trypsin/EDTA. The density of the single-cell suspension was adjusted to 2.0 × 10^5 cells/mL for S2 cells and to 1.5 × 10^5 cells/mL for MDCK II and HEK293A cells. The cell suspension was then added to the reservoirs of the 24-well plate for culture until full confluency. The medium in the wells was removed, and the wells were washed with DPBS. Then, the plate was incubated for 10 min with pre-warmed DPBS in the wells. After removing DPBS, […] of working mix was added to each well to initiate the substrate uptake process. The reaction time was 5 min for S2-OCT2 cells, while the other four types of cells were incubated with the reaction mix for 2 min. Cold DPBS was used to terminate the substrate transportation. To each well, […] NaOH ([…]) was added to lyse the cells. Then, […] cell lysate was transferred to the counting vials, and 3 mL scintillation cocktail (Aquasol-2, PerkinElmer, Waltham, MA, USA) was added. […] Each sample was replicated three times (N = 3).
In = [100 × (U − U0)/(Uc − U0)]%(3)
The results were expressed as mean ± standard deviation (SD) and analyzed with GraphPad Prism 8.0 software (CA, USA). The IC50 of PDQ was curve-fitted with the FORECAST function. Statistical significance was calculated using a two-tailed test, and a p value < 0.05 was considered as significant.

Question: With `CC(C)(O)[C@@H]1CC[C@@](C)([C@H]2CC[C@]3(C)[C@@H]2[C@H](O)C[C@@H]2[C@@]4(C)CC[C@H](O)C(C)(C)[C@@H]4CC[C@]23C)O1` [PDQ, (20S,24S)-dammar-20,24-epoxy-3β, 12β, 25-triol] as the compound, how does the “DPM (3H-ES uptake by OAT3)” value (inhibitor 0.1 μM) read?
Answer: The value was 7893.7±359.2 DPM.

Question: And the “Transport activity of OAT3 (main text: percentage inhibition)” value (inhibitor 0.1 μM)?
Answer: The value was 99.5±4.5%.

Question: And the “DPM (3H-ES uptake by OAT3)” value (inhibitor 0.3 μM)?
Answer: Its value is 7623.7±652.1 DPM.

Question: What about the “Transport activity of OAT3 (main text: percentage inhibition)” value (inhibitor 0.3 μM) of the same compound?
Answer: The value was 96.1±8.2%.

Question: And the “DPM (3H-ES uptake by OAT3)” value (inhibitor 1 μM)?
Answer: Its value is 7285.3±273.2 DPM.

Question: And the “Transport activity of OAT3 (main text: percentage inhibition)” value (inhibitor 1 μM)?
Answer: The value was 91.8±3.4%.

Question: What about the “DPM (3H-ES uptake by OAT3)” value (inhibitor 3 μM) of the same compound?
Answer: Its value is 7192.7±157.6 DPM.

Question: And the “Transport activity of OAT3 (main text: percentage inhibition)” value (inhibitor 3 μM)?
Answer: The value was 90.6±2.0%.

Question: And the “DPM (3H-ES uptake by OAT3)” value (inhibitor 10 μM)?
Answer: Its value is 4919.0±360.3 DPM.

Question: What about the “Transport activity of OAT3 (main text: percentage inhibition)” value (inhibitor 10 μM) of the same compound?
Answer: Its value is 62.0±4.5%.

Question: And the “DPM (3H-ES uptake by OAT3)” value (inhibitor 30 μM)?
Answer: Its value is 4541.3±532.8 DPM.
